The record followed here is patent US10051861B2, “N-arylamidine-substituted trifluoroethyl sulfide derivatives as acaricides and insecticides” (BAYER CROPSCIENCE AG, priority 2011, dated 2018).

The test system of series [1] is greenhouse red spider mite (Tetranychus urticae). Put plainly: Tetranychus urticae spray test, OP-resistant (TETRUR), bean leaf disks. In kind it is in vivo. The note with it: Tetranychus urticae, foliar, 144 h, read-out: efficacy (spider mites killed). Here is the method:
After 6 days, the effect in % is determined.

For series [2], the system named is larvae of the mustard beetle (Phaedon cochleariae). The experiment in a line: Phaedon cochleariae spray test (PHAECO). Particulars: Phaedon cochleariae, 168 h, read-out: effect (beetle larvae killed).
Series [3] can be described thus: logP by HPLC on reversed-phase columns (C 18), EEC Directive 79/831 Annex V.A8. In kind it is physicochemical. The procedure:
Calibration is carried out using unbranched alkan-2-ones (having from 3 to 16 carbon atoms) with known log P values (the log P values are determined by the retention times using linear interpolation between two successive alkanones).

Setting [4] is: application rate 500 g/ha, after 6 days.
Where [5] appears, read: reversed-phase C18 HPLC column, pH 2.7, [a] LC-MS, acidic range, pH 2.7, 0.1% aqueous formic acid/acetonitrile, read-out: logP(HCOOH).
Setting [6] is: reversed-phase C18 HPLC column, pH 7.8, [b] LC-MS, neutral range, pH 7.8, 0.001 molar aqueous ammonium bicarbonate/acetonitrile, read-out: logP(neutral).

Read-outs that look alike come from different tables or passages of the source.

For `N/C(=N/c1cc(SCC(F)(F)F)c(Br)cc1Br)C(F)(F)F` [Ia-28], the pest or weed control at 500 g/ha in series [1] (setting [4]) and in series [2] was 100% in each case.
`Cc1cc(F)c(/N=C(\N)C2(Cl)CC2F)cc1SCC(F)(F)F` (stereo not shown) [Ia-29]: the pest or weed control at 500 g/ha in series [1] (setting [4]) and in series [2] was 100% each time.
On to `Cc1cc(F)c(/N=C(\N)C2CC2F)cc1SCC(F)(F)F` (stereo not shown) [Ia-33], for which the results for the pest or weed control at 500 g/ha in series [1] (setting [4]) and in series [2] were 100% and 83%, respectively.
For `CN(C)/C(=N/c1cc(SCC(F)(F)F)c(Cl)cc1F)C(F)(F)F` [Ia-35] the same measures were 100% and 100%.
For `Cc1cc(Cl)c(/N=C(\N)C2(Cl)CC2)cc1SCC(F)(F)F` [Ia-36] the same measures were 100% and 100%.
For `Cc1cc(Cl)c(/N=C(\N)C(F)(F)C(F)(F)F)cc1SCC(F)(F)F` [Ia-38] the same measures were 100% and 100%.
For `Cc1cc(F)c(/N=C2\CCCN2c2ccccc2)cc1SCC(F)(F)F` [Ia-78, 2-Fluoro-4-methyl-N-[(2E)-1-phenylpyrrolidin-2-ylidene]-5-[(2,2,2-trifluoroethyl)sulfanyl]aniline], the pest or weed control at 500 g/ha in series [1] (setting [4]) and in series [2] was 100% in each case.
On to `Cc1cc(F)c(/N=C(\N)[C@H]2CC2(C)C)cc1SCC(F)(F)F` [Ia-79], for which the pest or weed control at 500 g/ha in series [1] (setting [4]) and in series [2] was 100% throughout.
Regarding `Cc1cc(F)c(/N=C(\N)C2CC2)cc1SCC(F)(F)F` [Ia-92], the pest or weed control at 500 g/ha came out at 90% in series [1] (setting [4]) and 83% in series [2].
For `N/C(=N/c1cc(SCC(F)(F)F)c(Br)cc1Cl)C(F)(F)F` [Ia-121] the same measures were 100% and 100%.
For the compound `N/C(=N\c1cc(SCC(F)(F)F)c(Cl)cc1Cl)c1ccncn1` [Ia-130], the pest or weed control at 500 g/ha in series [1] (setting [4]) was determined as 100%; in series [2], 83%.
For `N/C(=N\c1cc(SCC(F)(F)F)c(Cl)cc1Cl)c1ccccn1` [Ia-134] the same measures were 100% and 83%.
For `N/C(=N\c1cc(SCC(F)(F)F)c(Cl)cc1Cl)c1ccc(Cl)nc1` [Ia-135], the pest or weed control at 500 g/ha in series [1] (setting [4]) and in series [2] was 100% throughout.
Consider `N/C(=N\c1cc(SCC(F)(F)F)c(Cl)cc1Cl)C1CC1` [Ia-139], for which the pest or weed control at 500 g/ha in series [1] (setting [4]) and in series [2] was 100% throughout.
For the compound `Cc1cc(F)c(/N=C(\c2ccco2)N(C)C)cc1SCC(F)(F)F` [Ia-166, N′-{2-Fluoro-4-methyl-5-[(2,2,2-trifluoroethyl)sulfanyl]phenyl}-N,N-dimethylfuran-2-carboximidamide], the pest or weed control at 500 g/ha in series [1] (setting [4]) was found to be 100%. Moreover, the chromatographic logP in series [3] (setting [5]) worked out at 1.57; in series [3] (setting [6]), 3.94.
Consider `Cc1cc(F)c(/N=C(/NCc2ccccc2)C(F)(F)F)cc1SCC(F)(F)F` [Ia-171], for which the pest or weed control at 500 g/ha in series [1] (setting [4]) came to 90%; in series [2] it was 83%.
Turning to `Cc1cc(F)c(/N=C2\SCC(=O)N2CC(F)(F)F)cc1SCC(F)(F)F` [Ia-175, 2-({2-Fluoro-4-methyl-5-[(2,2,2-trifluoroethyl)sulfanyl]phenyl}imino)-3-(2,2,2-trifluoroethyl)-1,3-thiazolidin-4-one], the pest or weed control at 500 g/ha in series [1] (setting [4]) turned out to be 90%. The chromatographic logP turned out to be 4.09 in series [3] (setting [5]) and 3.99 in series [3] (setting [6]).
On to `Cc1cc(F)c(/N=C2\CCCN2c2ccc(C(F)(F)F)cc2)cc1SCC(F)(F)F` [Ia-191], for which the pest or weed control at 500 g/ha in series [1] (setting [4]) and in series [2] was 100% each time.
Turning to `CN(C)/C(CC(F)(F)F)=N\c1cc(SCC(F)(F)F)c(Cl)cc1Cl` [Ia-202], the pest or weed control at 500 g/ha in series [1] (setting [4]) and in series [2] was 100% in each case.
As to `CN(C)/C(=N\c1cc(SCC(F)(F)F)c(Cl)cc1Cl)c1ccccc1Cl` [Ia-207], the pest or weed control at 500 g/ha in series [1] (setting [4]) was 100%; in series [2], 83%.
For the compound `N/C(=N\c1cc(SCC(F)(F)F)c(Cl)cc1Cl)C1CCC1` [Ia-209], the pest or weed control at 500 g/ha in series [1] (setting [4]) and in series [2] was 100% each time.
Take `N/C(=N\c1cc(SCC(F)(F)F)c(Cl)cc1Cl)C(Cl)(Cl)Cl` [Ia-210]: the values for the pest or weed control at 500 g/ha in series [1] and in series [2] were 100% and 83%, respectively.
In the case of `FC(F)(F)CSc1cc(/N=C(\NC2CC2)c2ccc(Cl)nc2)c(Cl)cc1Cl` [Ia-229], the results for the pest or weed control at 500 g/ha in series [1] (setting [4]) and in series [2] were 90% and 100%, respectively.
On to `CN/C(=N/c1cc(SCC(F)(F)F)c(C)cc1F)c1ccc(C(F)(F)F)cc1` [Ia-250, N′-{2-Fluoro-4-methyl-5-[(2,2,2-trifluoroethyl)sulfanyl]phenyl}-N-methyl-4-(trifluoromethyl)benzenecarboximidamide], for which, in series [1] (setting [4]), the pest or weed control at 500 g/ha amounted to 90%. Further, the chromatographic logP in series [3] (setting [5]) worked out at 1.96; in series [3] (setting [6]), 4.08.
Take `Cc1cc(F)c(/N=C(\NCC2CCC(C(F)(F)F)CC2)C2CC2)cc1SCC(F)(F)F` (stereo not shown) [Ia-251]: the pest or weed control at 500 g/ha in series [1] (setting [4]) stood at 90%. For the same compound, in series [3] (setting [5]), the chromatographic logP turned out to be 2.23.
`Cc1cc(F)c(/N=C2/NCCCS2)cc1SCC(F)(F)F` [Ia-278, 2-fluoro-4-methyl-N-[1,3-thiazinan-2-ylidene]-5-[(2,2,2-trifluoroethyl)sulfanyl]anilinium chloride]: the pest or weed control at 500 g/ha in series [1] was found to be 90%. In addition, the chromatographic logP in series [3] ([a] LC-MS, acidic range, pH 2.7, 0.1% aqueous formic acid/acetonitrile, read-out: logP(HCOOH)) was 1.34.
With `CN/C(=N/c1cc([S+]([O-])CC(F)(F)F)c(Cl)cc1Cl)C(F)(F)F` (stereo not shown) [Ib-21], the pest or weed control at 500 g/ha in series [1] (setting [4]) was 100%. Also, the chromatographic logP in series [3] (setting [5]) and in series [3] (setting [6]) was 3.32 each time.
On to `Cc1cc(Cl)c(/N=C(\N)C2(Cl)CC2)cc1[S+]([O-])CC(F)(F)F` (stereo not shown) [Ib-27], for which the pest or weed control at 500 g/ha in series [1] (setting [4]) and in series [2] was 100% each time.
For `Cc1cc(F)c(/N=C2\CCCN2c2ccc(C(F)(F)F)cc2)cc1[S+]([O-])CC(F)(F)F` (stereo not shown) [Ib-30], the pest or weed control at 500 g/ha in series [1] (setting [4]) was determined as 100%; in series [2], 83%.
For `Cc1cc(F)c(/N=C(\NC2CC2)C2CC2)cc1[S+]([O-])CC(F)(F)F` (stereo not shown) [Ib-39] the same measures were 100% and 100%.
For `Cc1cc(F)c(/N=C(\N)C(F)F)cc1[S+]([O-])CC(F)(F)F` (stereo not shown) [Ib-43] the same measures were 100% and 100%.
Consider `Cc1cc(F)c(/N=C(/Nc2ccccc2)C(F)(F)F)cc1[S+]([O-])CC(F)(F)F` (stereo not shown) [Ib-49], for which the pest or weed control at 500 g/ha in series [1] (setting [4]) came to 100%. Also, the chromatographic logP is 3.22 in series [3] (setting [5]) and 3.12 in series [3] (setting [6]).
Turning to `CN/C(=N\c1cc([S+]([O-])CC(F)(F)F)c(C)cc1Cl)C(F)(F)F` (stereo not shown) [Ib-56], the pest or weed control at 500 g/ha in series [1] (setting [4]) and in series [2] was 100% in each case.
Take `N/C(=N/c1cc([S+]([O-])CC(F)(F)F)c(Cl)cc1Br)C(F)(F)F` (stereo not shown) [Ib-57]: the pest or weed control at 500 g/ha in series [1] (setting [4]) and in series [2] was 100% each time.
For the compound `Cc1cc(F)c(/N=C(\N)c2cnccn2)cc1[S+]([O-])CC(F)(F)F` (stereo not shown) [Ib-62, N′-{2-Fluoro-4-methyl-5-[(2,2,2-trifluoroethyl)sulfinyl]phenyl}pyrazine-2-carboximidamide], the pest or weed control at 500 g/ha in series [1] (setting [4]) came out at 100%. Further, the chromatographic logP turned out to be 0.84 in series [3] (setting [5]) and 1.77 in series [3] (setting [6]).
Consider `Cc1cc(F)c(/N=C2\SCC(=O)N2CC(F)(F)F)cc1[S+]([O-])CC(F)(F)F` (stereo not shown) [Ib-71, 2-({2-Fluoro-4-methyl-5-[(2,2,2-trifluoroethyl)sulfinyl]phenyl}imino)-3-(2,2,2-trifluoroethyl)-1,3-thiazolidin-4-one], for which, in series [1] (setting [4]), the pest or weed control at 500 g/ha came out at 100%. Also, the chromatographic logP in series [3] (setting [5]) was found to be 2.93; in series [3] (setting [6]), 2.87.
`CN/C(=N/c1cc([S+]([O-])CC(F)(F)F)c(Br)cc1F)C(F)(F)F` (stereo not shown) [Ib-78]: the pest or weed control at 500 g/ha in series [1] (setting [4]) and in series [2] was 100% in each case.
Consider `[O-][S+](CC(F)(F)F)c1cc(/N=C(\NCC(F)(F)F)C2CC2)c(Cl)cc1Cl` (stereo not shown) [Ib-83], for which the pest or weed control at 500 g/ha in series [1] (setting [4]) and in series [2] was 100% in each case.
On to `COc1ccc(N/C(=N/c2cc([S+]([O-])CC(F)(F)F)c(C)cc2F)C(F)(F)F)cc1` (stereo not shown) [Ib-86], for which, in series [1] (setting [4]), the pest or weed control at 500 g/ha came out at 100%. Further, the chromatographic logP in series [3] (setting [5]) is 3.04; in series [3] (setting [6]), 3.05.
Take `Cc1cc(F)c(/N=C(/NCc2ccc(C(F)(F)F)cc2)C(F)(F)F)cc1[S+]([O-])CC(F)(F)F` (stereo not shown) [Ib-101]: the pest or weed control at 500 g/ha in series [1] (setting [4]) is 90%; in series [2], 100%.
`CN/C(=N/c1ccc(Cl)c([S+]([O-])CC(F)(F)F)c1)C(F)(F)F` (stereo not shown) [Ib-110]: the pest or weed control at 500 g/ha in series [1] (setting [4]) and in series [2] was 100% in each case.
With `Cc1ccc(/N=C(/N)C(F)(F)F)cc1[S+]([O-])CC(F)(F)F` (stereo not shown) [Ib-111], the pest or weed control at 500 g/ha was found to be 90% in series [1] (setting [4]) and 100% in series [2].
For `C#CCN/C(=N\c1cc([S+]([O-])CC(F)(F)F)c(C)cc1F)C1CC1` (stereo not shown) [Ib-137] the same measures were 100% and 83%.
